Results as given in US11760984B2, “CRISPR protein inhibitors” (THE BROAD INSTITUTE, INC., priority 2017, dated 2023).

Molecular target: T1, SpCas9:gRNA complex (Streptococcus pyogenes serotype M1, UniProt Q99ZW2)
T1 construct: His6 (N, cleaved yes); made in house; host or cells: E. coli BL21 Star (DE3)
Assay: 19F NMR binding assay
Conditions: for Fractional Occupancy (1-Ibound/I0) / LW (linewidth of 19F signal): [Ligand] 50 μM
Protocol: (§1) NMR binding assay. All samples were prepared with 50 μM BRD7087 in 20 mM Tris buffer (pH=7.4) with varying concentrations of SpCas9:gRNA in a 3 mm NMR tube. Experiments were performed on a 600 MHz (19F: 564.71 MHz) Bruker Avance III NMR spectrometer equipped with a 5 mm QCI-F CryoProbe and a SampleJet for automated sample handling. To acquire spectra, a standard one-pulse 19F experiment with WALTZ-16 for proton decoupling during acquisition, a 5 second recycle delay, and 256 scans was used. All spectra were recorded at 280 K. NMR data were apodized with a 1 Hz exponential function prior to Fourier transformation. All spectra were baseline corrected; peak widths and intensities were extracted using the automated line-fitting feature provided with the MNova software package. Determination of the value of Kd was accomplished using least squares fitting to the expression given in Equation 8 in the paper by Shortridge et al.2.
Kd values obtained by NMR rely on the assumption that ligand binding is in fast-exchange, which typically holds true for ligands with Kd in the 0.5 μM to 20 mM range.
as §1, with “(^19F:” for “(19F:”, “^19F” for “19F”, “al.^2.” for “al.2.”

T1 sequence (Q99ZW2 whole entry, one chain of several): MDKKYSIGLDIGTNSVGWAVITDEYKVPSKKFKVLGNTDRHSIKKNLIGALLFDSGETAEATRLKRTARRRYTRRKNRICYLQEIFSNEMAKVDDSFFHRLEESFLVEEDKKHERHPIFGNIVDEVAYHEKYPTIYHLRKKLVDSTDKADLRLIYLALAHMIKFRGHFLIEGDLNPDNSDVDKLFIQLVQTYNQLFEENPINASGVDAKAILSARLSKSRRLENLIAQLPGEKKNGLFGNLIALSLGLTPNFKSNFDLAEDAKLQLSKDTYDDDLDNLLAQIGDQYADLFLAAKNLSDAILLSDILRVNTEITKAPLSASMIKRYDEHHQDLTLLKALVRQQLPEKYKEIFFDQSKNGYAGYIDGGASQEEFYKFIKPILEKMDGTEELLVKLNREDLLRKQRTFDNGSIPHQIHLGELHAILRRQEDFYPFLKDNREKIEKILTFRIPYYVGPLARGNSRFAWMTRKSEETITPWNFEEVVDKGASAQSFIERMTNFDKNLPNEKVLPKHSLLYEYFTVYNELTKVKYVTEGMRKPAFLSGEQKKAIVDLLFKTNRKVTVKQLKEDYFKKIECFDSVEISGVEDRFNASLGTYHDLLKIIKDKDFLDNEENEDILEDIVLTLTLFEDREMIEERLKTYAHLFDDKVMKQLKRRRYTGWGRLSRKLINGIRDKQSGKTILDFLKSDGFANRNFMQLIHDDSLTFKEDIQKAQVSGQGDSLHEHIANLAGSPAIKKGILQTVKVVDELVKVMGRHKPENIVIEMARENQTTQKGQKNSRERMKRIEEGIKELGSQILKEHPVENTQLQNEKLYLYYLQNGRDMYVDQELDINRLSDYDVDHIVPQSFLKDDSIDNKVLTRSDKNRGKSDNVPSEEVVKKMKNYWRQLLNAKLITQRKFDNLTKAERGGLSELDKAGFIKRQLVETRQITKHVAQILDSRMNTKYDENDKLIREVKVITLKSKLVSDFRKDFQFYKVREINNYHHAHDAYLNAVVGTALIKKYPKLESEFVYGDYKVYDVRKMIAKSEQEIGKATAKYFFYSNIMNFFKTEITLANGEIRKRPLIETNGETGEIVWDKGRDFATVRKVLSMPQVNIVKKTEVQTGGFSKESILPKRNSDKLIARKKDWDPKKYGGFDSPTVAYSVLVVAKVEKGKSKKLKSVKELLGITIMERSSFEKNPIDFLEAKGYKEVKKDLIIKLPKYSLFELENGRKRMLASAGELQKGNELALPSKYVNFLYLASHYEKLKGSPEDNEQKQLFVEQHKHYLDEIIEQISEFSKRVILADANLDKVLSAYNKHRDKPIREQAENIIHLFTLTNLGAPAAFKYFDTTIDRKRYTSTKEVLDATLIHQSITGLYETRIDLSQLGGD

What does the source list for `OC[C@H]1Nc2ccc(-c3cccc(F)c3)cc2[C@H]2[C@@H]1CCN2Cc1ccncc1` [BRD7087, ((3aR,4S,9bR)-8-(3-Fluorophenyl)-1-(pyridin-4-ylmethyl)-2,3,3a,4,5,9b-hexahydro-1H-pyrrolo[3,2-c]quinolin-4-yl)methanol]?
Kd (50 μM ligand, 20 mM Tris pH 7.4, 280 K, read-out: binding constant Kd (method of Shortridge et al., peak intensities)): ~2200 nM; binding by differential line broadening of 19F signal (50 μM ligand, broadening from 0.75 μM SpCas9:gRNA): relatively tight binding; Fractional Occupancy (1-Ibound/I0) ([Protein:gRNA] 0.75 μM): 0.1307; LW (linewidth of 19F signal) ([Protein:gRNA] 0.75 μM): 4.3 Hz; Fractional Occupancy (1-Ibound/I0) ([Protein:gRNA] 1.0 μM): 0.1817; LW (linewidth of 19F signal) ([Protein:gRNA] 1.0 μM): 4.6 Hz; Fractional Occupancy (1-Ibound/I0) ([Protein:gRNA] 1.25 μM): 0.3042; LW (linewidth of 19F signal) ([Protein:gRNA] 1.25 μM): 5.3 Hz; Fractional Occupancy (1-Ibound/I0) ([Protein:gRNA] 1.5 μM): 0.3436; LW (linewidth of 19F signal) ([Protein:gRNA] 1.5 μM): 5.9 Hz; Fractional Occupancy (1-Ibound/I0) ([Protein:gRNA] 1.75 μM): 0.4015; LW (linewidth of 19F signal) ([Protein:gRNA] 1.75 μM): 6.3 Hz
